{"source": "paper PMC11137182", "about": "“Selective and brain-penetrant ACSS2 inhibitors target breast cancer brain metastatic cells” (Frontiers in Pharmacology, 2024)", "key": {"ACSS2": {"target": "T1, ACSS2 (Homo sapiens, UniProt Q9NR19)", "T1 construct": "His-tag (N); His-tag (C); made in house; host or cells: E. coli BL21 (DE3) RIL", "T1 sequence (Q9NR19 whole entry)": "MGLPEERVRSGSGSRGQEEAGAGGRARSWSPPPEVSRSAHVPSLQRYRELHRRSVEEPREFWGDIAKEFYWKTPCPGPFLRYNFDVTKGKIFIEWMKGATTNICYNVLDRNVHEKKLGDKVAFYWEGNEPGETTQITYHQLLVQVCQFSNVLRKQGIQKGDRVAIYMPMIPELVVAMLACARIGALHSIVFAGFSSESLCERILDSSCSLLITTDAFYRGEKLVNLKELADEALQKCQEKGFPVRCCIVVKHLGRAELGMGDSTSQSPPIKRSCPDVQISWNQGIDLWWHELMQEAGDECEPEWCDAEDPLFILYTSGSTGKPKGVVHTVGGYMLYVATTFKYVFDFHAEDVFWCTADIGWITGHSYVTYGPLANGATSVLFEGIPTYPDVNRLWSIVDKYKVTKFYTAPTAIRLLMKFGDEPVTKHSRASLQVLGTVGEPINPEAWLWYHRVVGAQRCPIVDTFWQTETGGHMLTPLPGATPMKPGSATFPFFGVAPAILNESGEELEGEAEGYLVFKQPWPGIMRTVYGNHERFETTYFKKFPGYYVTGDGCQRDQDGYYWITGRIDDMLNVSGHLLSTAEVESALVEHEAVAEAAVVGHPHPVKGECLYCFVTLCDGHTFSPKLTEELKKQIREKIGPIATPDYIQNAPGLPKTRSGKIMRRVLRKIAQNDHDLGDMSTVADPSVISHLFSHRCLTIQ", "assay": "Fluorescence polarization-based ACSS2 biochemical assay (ATP to AMP conversion)", "details": "100 nM ACSS2, triplicate, ± SD; read-out: IC50, inhibition of ATP to AMP conversion of ACSS2", "procedure": "ACSS2 enzyme activity was measured using the TranScreener AMP^2/GMP^2 Assay Kit—FP Readout assay (BellBrook Labs). The assay was performed in white, opaque, 96-well plates. […] ACSS2 was used in assay buffer (30 mM HEPES, pH 7.4, 140 mM NaCl, 2 mM MgCl2, 5 mM sodium acetate, 2 mM DTT, 0.05% CHAPS). Substrate mix was added, followed by a 60-min incubation. Final substrate concentrations were 5 mM acetate, 50 μM ATP, and 5 μM CoA. After incubation, conjugated AMP antibody and AMP tracer were added according to the methods described by BellBrook Labs. After 30 min, the FP signal was measured using a Tecan Spark multimode microplate reader. In the analysis, data were normalized to represent the percentage inhibition of ATPase activity."}, "4T1BR cells": {"tested_on": "4T1BR cells", "assay": "Cell death by propidium iodide flow cytometry", "assay_type": "cell-based", "details": "100 μM, 48 hours", "procedure": "(§1) Cells were prepared according to manufacturer protocol (BD Pharmingen, Propidium Iodine). Briefly, cells were trypsinized (0.25% Trypsin), counted, washed twice with 1xPBS, and resuspended in 100uL 1X binding buffer incubated with 5 uL Propidium Iodine (PI) staining solution for 15 min in the dark at room temperature. Following incubation, the volume was brought up to 500uL of 1X binding buffer. Tubes were then analyzed using a Guava easyCyte flow cytometer. All data were collected and analyzed using a Guava EasyCyte Plus system and CytoSoft (version 5.3) software (Millipore). Data are gated and expressed relative to the appropriate unstained and single-stained controls."}, "MDA-MB-231BR cells [1]": {"tested_on": "MDA-MB-231BR cells", "assay": "Cell death by propidium iodide flow cytometry", "assay_type": "cell-based", "details": "100 μM, 48 h", "procedure": "as §1"}, "MDA-MB-231BR cells [2]": {"tested_on": "MDA-MB-231BR cells", "assay": "BODIPY staining of lipid droplets", "assay_type": "cell-based", "details": "100 μM, 48 h", "procedure": "Cells were treated with 5uM BODIPY 493/503 (Invitrogen) and NucBlue® Live reagent (Invitrogen) in PBS for 15 min, washed 2x with 1xPBS, fixed using 4% paraformaldehyde for 30 min at RT in the dark and washed in 1xPBS prior to mounting and imaging on EVOS FL (Life Technologies) using […] for BODIPY and DAPI channel for NucBlue."}, "[3]": {"tested_on": "brain slices not containing tumors", "assay": "MTS cell viability of brain slices without tumor", "set-up": "species or system mice", "details": "100 μM, day 6, MTS assay", "procedure": "Ex vivo brain slice tumor model was performed as previously described ([Ciraku et al., 2021]). Briefly, Nu/Nu athymic 4–6 week old mice Charles River Laboratories (Wilmington, MA, United States) were immobilized using the Just for Mice Stereotaxic Frame (Harvard Apparatus, Holliston, MA, United States) and injected intracranially with 5uL of 20,000 cells/uL solution of luciferase tagged MDA-MB-231BR or 4T1BR cells. Tumor growth was monitored via bioluminescence imaging on the IVIS system (Perkin Elmer, Waltman, MA, United States). Organotypic hippocampal cultures were prepared as described previously ([Ciraku et al., 2021]). Briefly, adult mice (4–6 weeks) or mice after 12 days following intracranial injection were decapitated and their brains rapidly removed into ice-cold (4°C) sucrose-aCSF composed of the following (in mM): 280 sucrose, 5 KCl, 2 MgCl2, 1 CaCl2, 20 glucose, 10 HEPES, 5 Na^+-ascorbate, 3 thiourea, 2 Na^+-pyruvate; pH = 7.3. […] Tumor growth was monitored via bioluminescence imaging on the IVIS 200 system (Perkin Elmer), and results were analyzed using Living Image software (Caliper Life Sciences, Waltham, MA, United StatesUnited States). […] Tissues were incubated at 37 ℃ , 5% CO2 for 4 h, and absorbance at 490 nm was measured with a Tecan Spark Microplate reader."}}}
{"smiles": "N[C@H](C(=O)N1CCCC(c2ccccc2)(c2ccccc2)C1)C1CC1", "note": "[AD-8007]", "values": [{"measurement": "IC50", "setting": "ACSS2", "value": "890 ± 290", "unit": "nM"}, {"measurement": "cell death (PI+ cells)", "setting": "4T1BR cells", "value": "significantly increased cell death"}, {"measurement": "cell death (PI+ cells)", "setting": "MDA-MB-231BR cells [1]", "value": "significantly increased cell death"}, {"measurement": "lipid droplet content", "setting": "MDA-MB-231BR cells [2]", "value": "significantly reduced lipid droplet content"}, {"measurement": "cell viability of brain slices without tumor", "setting": "[3]", "value": "did not alter cell viability"}]}
